Reference: PubChem BioAssay (NCI)
Where “and” joins values, the source holds several entries; their conditions need not be identical. Equal values may be shown once.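 Cells were grown in 96-well plates and exposed to each compound for 48 hours at five concentrations; endpoints were interpolated linearly between bracketing concentrations, or set to the highest concentration if not reached. At the GI50, growth is halved. TGI marks complete inhibition of growth.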

How the values were obtained:
Assay in all cases: NCI anticancer screen, dose series, 48 h
[1] = system: SK-MEL-28 melanoma
[2] = system: MDA-N
[3] = system: MDA-MB-231 breast
[4] = system: MCF7 breast
[5] = system: PC-3 prostate
[6] = system: HT29 colon
[7] = system: UACC-62 melanoma
[8] = system: HCC-2998 colon
[9] = system: HL-60(TB) leukemia

Row | SMILES | TGI [1] [µM] | TGI [2] [µM] | TGI [3] | TGI [4] [µM] | TGI [5] [µM] | TGI [6] [µM] | TGI [7] [µM] | TGI [8] | GI50 [1] [µM] | GI50 [3] [µM] | GI50 [4] [µM] | GI50 [5] [µM] | GI50 [6] [µM] | GI50 [9] [µM] | TGI [9] [µM] | GI50 [7] [µM] | GI50 [8] [µM]
1 | O=C1NC(=O)C2(CCC(O)C2)c2cc[n+]([O-])cc21 (centres undefined) | > 100 | > 100 | > 100 µM | > 100 | > 100 | > 100 | > 100 | > 100 µM | – | – | – | – | – | – | – | – | –
2 | C=CC[Se]C(=O)Cc1c(C)n(C(=O)c2ccc(Cl)cc2)c2ccc(OC)cc12 | 3.12 | – | 3.21 µM | 4.17 | 2.8 | > 100 | 3.18 | 3.2 µM | 1.69 | 1.66 | 1.81 | 1.26 | 3.39 | 2.26 | 5.56 | 1.74 | 1.64
3 | CS(=O)c1ccc(-c2nc(-c3ccc(F)cc3)c(-c3ccncc3)[nH]2)cc1 (centres undefined) | 66.3 | – | > 100 µM | > 100 | > 89.4 | > 89.4 | > 66 | > 89.7 µM | 17.1 | 48.4 | 33.6 | 35.6 | 10.7 | 23 | 53.1 | 9.09 | 33.6
4 | COc1ccccc1CNC(=O)C1c2ccccc2C(=O)N(CC(C)C)C1c1cccs1 (centres undefined) | > 100 | – | > 100 µM | > 100 | > 100 | 90.5 | 38.6 | > 100 µM | 30.7 | 26.8 | 27.2 | 15.9 | 17 | 20.5 | 60.9 | 14.7 | 47.8
5 | COc1cccc(Cn2cc3c(c2)-c2oncc2CC3)c1 | > 100 | – | 96.8 µM | > 100 | > 100 | 11.7 | > 88.8 | 7.98 µM | 0.746 | 0.636 | 0.378 | 0.751 | 0.306 | 0.247 | 0.762 | 0.662 | 0.442
6 | CCCC[P+](c1ccccc1)(c1ccccc1)c1ccccc1 | > 100 | – | > 100 µM | > 100 | 68.3 | > 100 | > 100 | > 100 µM | 28.1 | 9.13 | 1.33 | 1.16 | 3.03 | 0.955 | 6.91 | 1.9 | 1.42
7 | O=C1/C(=C/c2ccc([N+](=O)[O-])s2)Oc2ccccc21 | 2.65 | – | 0.818 µM | 5.02 | 2.26 | 4.67 | 1.94 | 2.89 µM | 1.25 | 0.279 | 0.75 | 0.387 | 0.771 | 0.96 | – | 0.667 | 1.42
8 | C#CCOc1ccc2ncnc(Nc3ccc(NC(=O)CCl)cc3)c2c1 | 79.6 | – | 20 µM | 15.9 | 27.6 | 16 | 27.4 | 27.1 µM | 14.5 | 4.51 | 3.61 | 8.1 | 4.22 | 5.91 | 25.2 | 8.97 | 13.7
9 | O=C(NCCCNC(=O)OCc1ccc2c(Br)cc(Br)c(O)c2n1)OCc1ccc2c(Br)cc(Br)c(O)c2n1 | > 100 | – | > 100 µM | > 100 | > 100 | > 100 | > 100 | > 100 µM | > 100 | > 100 | > 100 | > 100 | > 100 | > 100 | > 100 | > 100 | > 100
10 | O=C(Nc1cccc2cccnc12)c1ccc(N2C(=O)[C@@H]3[C@H](C2=O)[C@@H]2C=C[C@H]3C2)cc1 | > 100 | – | > 100 µM | > 100 | > 100 | 62.4 | > 86.3 | > 100 µM | 35.2 | 33.2 | 25.1 | 25.1 | 18 | 21 | 59 | 22.4 | 35.4
11 | Cc1[nH]nc2c1N=C(c1ccccc1F)c1cc(C#N)ccc1N2 | > 23.5 | – | 11.7 µM | > 16.8 | > 25 | 7.41 | 7.37 | 15.9 µM | 6.5 | 2.59 | 0.119 | 4.93 | 0.118 | 0.0969 | 8.71 | 3.04 | 3.58
12 | O=C(NCCN1CCOCC1)Nc1ccc(-c2cc3c(Nc4ccc(Oc5cccc(C(F)(F)F)c5)c(Cl)c4)ncnc3s2)cc1 | 1.6 | – | 2.54 µM | 3.27 | 5.6 | 1.69 | 2.27 | 3.77 µM | 0.809 | 1.07 | 1.11 | 1.41 | 0.896 | 1.26 | 3.37 | 1 | 1.19
13 | COc1ccc(C2C(c3ccccc3)C(=O)N2c2cc(OC)c(OC)c(OC)c2)cc1I (centres undefined) | > 100 | – | > 100 µM | > 100 | > 100 | 90.1 | > 100 | > 100 µM | 2.31 | 0.455 | 0.336 | 0.488 | 0.344 | 0.225 | 0.533 | 0.458 | 0.567
14 | O=C(Nc1cccc(C(F)(F)F)c1)c1cccc(NC2=C(Cl)C(=O)N(Cc3ccccc3)C2=O)c1 | > 100 | – | > 100 µM | > 100 | 14.3 | > 100 | 29.9 | 32.7 µM | 45.1 | 5.38 | 3.28 | 3.1 | 40.1 | 5.36 | 28.7 | 12.1 | 16.8
15 | O=C(O)c1ccc(-c2ccc(C(=O)O)cc2I)c(I)c1 | > 100 | – | > 100 µM | > 100 | > 100 | > 100 | > 100 | > 100 µM | > 100 | > 100 | > 100 | > 100 | > 100 | > 100 | > 100 | > 100 | > 100
16 | O=C(c1ccco1)c1c(C(F)(F)F)nc2cc(C(F)(F)F)ccc2[n+]1[O-] | > 100 | – | 40.9 µM | > 100 | > 100 | > 100 | > 100 | > 100 µM | > 100 | 18.9 | 35.3 | 44.9 | > 100 | > 100 | > 100 | > 100 | > 100
17 | CCOC(=O)N1C/C(=C/c2ccc(OC)cc2)C(=O)/C(=C/c2ccc(OC)cc2)C1 | 7.84 | – | 6.48 µM | 3.2 | 8.61 | 2.53 | 5.4 | 3.38 µM | 2.72 | 2.38 | 0.363 | 2.53 | 0.79 | 3.02 | > 25.4 | 1.92 | 1.81
18 | Cc1c2ncccc2nc2[nH]c3ccc(OCCN(C)C)cc3c12 | 19.1 | – | 16 µM | 6.04 | 10.9 | 6.05 | 39.3 | 14.6 µM | 4.4 | 2.5 | 0.305 | 1.86 | 0.961 | 3.53 | 16.5 | 14.3 | 1.64
19 | CCn1c(-c2nonc2N)nc2c(C#CC(C)(C)O)nc(O[C@@H](CN)c3ccccc3)cc21 | 1.19 | – | 2.65 µM | 2.58 | 9.94 | 0.735 | 1.02 | 0.858 µM | 0.399 | 0.528 | 0.055 | 0.0858 | 0.119 | 0.0891 | 0.371 | 0.361 | 0.0478
20 | CC[C@@H](C)[C@H]([C@H](CC(=O)N1CCC[C@@H]1[C@@H](OC)[C@H](C)C(=O)N[C@H](Cc1ccccc1)c1nccs1)OC)N(C)C(=O)[C@H](NC(=O)[C@@H](C(C)C)N(C)C)C(C)C | > 100 | – | 0.000867 µM and < 0.048 µM | > 100 | > 65.8 | 0.000849 | – | 0.00176 µM and 0.00234 µM | 1.26 | 0.000147 | – | 7.77e-06 | – | 0.000425 | – | 0.000425 | 0.000425
21 | O=C(O)C(Br)C(Br)c1ccccc1[N+](=O)[O-] (centres undefined) | > 100 | > 100 | > 100 µM | > 100 | > 100 | > 100 | > 100 | > 100 µM | – | – | – | – | – | – | – | – | –
22 | COc1ccc(NC(=O)c2sc3nc(C)c(C(O)c4ccc(OC)cc4)cc3c2N)cc1 (centres undefined) | > 50 | – | > 50 µM | > 50 | > 50 | 19.4 | > 50 | 2.89 µM | 6.22 | 2.06 | 0.196 | 1.89 | 1.45 | 1.23 | > 50 | 0.621 | 0.804
23 | O=[N+]([O-])c1cc(Cl)cc2c1nc(NCCO)c1ccccc12 | > 100 | > 100 | > 100 µM | > 72.4 | > 70.4 | > 43 | > 60 | – | – | – | – | – | – | – | > 56.2 | – | –
